Data reported in patent US11111242B2, “Pyrrolo[2,3-d]pyrimidinyl, pyrrolo[2,3-b]pyrazinyl and pyrrolo[2,3-d]pyridinyl acrylamides” (Pfizer Inc., priority 2013, dated 2021).

tested on: IL-15 induced P-STAT5 in human PBMC (total lymphocytes); assay: PBMC IL-15 Induced P-STAT5; assay type: cell-based; settings: Homo sapiens, PBMC, IL-15 stimulated, read-out: PBMC IL15-pSTAT5 IC50
Protocol: PBMC IL-15 Induced P-STAT5
Frozen human PBMC (200-250 million cells/vial) was thawed at 37° C. The cells were transferred to 10 mL warm medium in a 50-mL conical tube, and centrifuged at 1,200 RPM at room temperature for 5 min. The supernatant was aspirated. […] After adding 47 ml D-PBS (37° C.) to PBMC/FBS suspension, centrifuging at 1,200 RPM at room temperature for 5 min, and aspirating the supernatant, the cells were resuspended in 20 mL warm RPMI medium. Ninety μL of cell suspension were pipetted per well in a 96-well, deep-well, V-bottom plate, and the plate was incubated at 37° C. for 30 min. […] After adding 0.8 mL staining buffer per well, the plates were centrifuged at 1,200 RPM (Beckman GS-6R or Sorvall Legend) at room temperature for 5 min, and again the supernatant was aspirated using a 8-channel or 12-channel manifold. The plate was vortexed, and 0.35 mL 90% methanol/10% H2O (−20° C.) was added per well, and the plate incubated on ice for 20 min. After again adding 0.8 mL staining buffer per well, the plates were centrifuged at 1,200 RPM (Beckman GS-6R or Sorvall Legend) at room temperature for 5 min, and again the supernatant was aspirated using a 8-channel or 12-channel manifold, and then 0.8 mL Staining buffer was added per well. After once again adding 0.8 mL staining buffer per well, the plates were centrifuged at 1,200 RPM (Beckman GS-6R or Sorvall Legend) at room temperature for 5 min, and again the supernatant was aspirated using a 8-channel or 12-channel manifold. […] Samples of 250 μL/well were transferred to a 96-well U-bottom plate, and the FACS analysis was performed gating on total lymphocytes. Samples were analyzed using a BD Calibur™ or BD FACSCanto™ flow cytometer equipped with the BD High Throughput Sampler.

Q: With `C=CC(=O)N1CCC[C@@H](Nc2nc(Nc3cccnc3)nc3[nH]ccc23)C1` [Example 63, 1-[(3R)-3-{[2-(Pyridin-3-ylamino)-7H-pyrrolo[2,3-d]pyrimidin-4-yl]amino}piperidin-1-yl]prop-2-en-1-one] as the compound, how does the IC50 read?
A: 1.38 µM

Q: For `C=CC(=O)N1CCC[C@@H](Nc2ncnc3[nH]cc(-c4ccc(C(=O)N(C)C)cc4)c23)C1` [Example 27, 4-(4-{[(3R)-1-acryloylpiperidin-3-yl]amino}-7H-pyrrolo[2,3-d]pyrimidin-5-yl)-N,N-dimethylbenzamide], which IC50 is on record?
A: 1.87 µM

Q: `C=C(C(=O)N1CC[C@@H]2CCN(c3ncnc4[nH]ccc34)[C@@H]2C1)C(F)(F)F` [Example 41, 1-((3aS,7aS)-1-(7H-Pyrrolo[2,3-d]pyrimidin-4-yl)hexahydro-1H-pyrrolo[2,3-c]pyridin-6(2H)-yl)-2-(trifluoromethyl)prop-2-en-1-one] was tested. Which IC50 did it give?
A: 0.446 µM

Q: How did the IC50 turn out when `C=CC(=O)N1CC(Nc2ncnc3[nH]ccc23)CCC1(C)C` (stereo not shown) [Example 67, 1-(5-((7H-Pyrrolo[2,3-d]pyrimidin-4-yl)amino)-2,2-dimethylpiperidin-1-yl)prop-2-en-1-one] was run?
A: 6.9 µM

Q: For `C=CC(=O)N1CCC(Nc2cnc3[nH]cc(-c4ccc(C)nc4)c3n2)CC1` [Example 199, 1-(4-{[7-(6-methylpyridin-3-yl)-5H-pyrrolo[2,3-b]pyrazin-2-yl]amino}piperidin-1-yl)prop-2-en-1-one], which IC50 is on record?
A: 0.735 µM

Q: With `C=CC(=O)N[C@H]1C[C@H](Nc2cnc3[nH]cc(C(=O)NC(C)C)c3n2)C1` [Example 198, 2-{[trans-3-(acryloylamino)cyclobutyl]amino}-N-(propan-2-yl)-5H-pyrrolo[2,3-b]pyrazine-7-carboxamide] as the compound, how does the IC50 read?
A: 1.17 µM

Q: `C#Cc1c[nH]c2ncnc(N3CC[C@H]4CCN(C(=O)C=C)C[C@H]43)c12` [Example 48, 1-[(3aS,7aS)-1-(5-ethynyl-7H-pyrrolo[2,3-d]pyrimidin-4-yl)octahydro-6H-pyrrolo[2,3-c]pyridin-6-yl]prop-2-en-1-one] was tested. Which IC50 did it give?
A: 0.0652 µM

Q: Which IC50 does the source give for `C=CC(=O)N1CC[C@H]2CCN(c3ncnc4[nH]ccc34)[C@H]2C1` (racemic) [Example 21, rac-1-((3aR,7aR)-1-(7H-Pyrrolo[2,3-d]pyrimidin-4-yl)hexahydro-1H-pyrrolo[2,3-c]pyridin-6(2H)-yl)prop-2-en-1-one] here?
A: 0.236 µM

Q: `C=CC(=O)N[C@H]1C[C@@H](Nc2cnc3[nH]cc(C(=O)NC(C)C)c3n2)C1` [Example 184, 2-{[cis-3-(acryloylamino)cyclobutyl]amino}-N-(propan-2-yl)-5H-pyrrolo[2,3-b]pyrazine-7-carboxamide] was tested. Which IC50 did it give?
A: 3.41 µM

same assay, conditions: IL-15 stimulated, read-out: PBMC IL15-pSTAT5 IC50

Q: Which IC50 does the source give for `C=CC(=O)N1CCC(Nc2cnc3[nH]cc(-c4ccncc4F)c3n2)CC1` [Example 200, 1-(4-{[7-(3-fluoropyridin-4-yl)-5H-pyrrolo[2,3-b]pyrazin-2-yl]amino}piperidin-1-yl)prop-2-en-1-one] here?
A: 0.819 µM

Q: How did the IC50 turn out when `C=CC(=O)N1CCC(Nc2cnc3[nH]cc(C(=O)NCC4(O)CC[C@@H](C)C4)c3n2)CC1` (stereo partly drawn) [Example 239, 2-[(1-acryloylpiperidin-4-yl)amino]-N-{[(3R)-1-hydroxy-3-methylcyclopentyl]methyl}-5H-pyrrolo[2,3-b]pyrazine-7-carboxamide] was run?
A: 1.9 µM

Q: With `C=CC(=O)N1CCC(Nc2cnc3[nH]cc(C(=O)NCC4(O)CCCC[C@H]4F)c3n2)CC1` (stereo partly drawn) [Example 250, 2-[(1-acryloylpiperidin-4-yl)amino]-N-{[(2R)-2-fluoro-1-hydroxycyclohexyl]methyl}-5H-pyrrolo[2,3-b]pyrazine-7-carboxamide] as the compound, how does the IC50 read?
A: 4.12 µM

Q: For `C=CC(=O)N1CCC(Oc2cnc3[nH]cc(-c4cccnc4F)c3n2)CC1` [Example 217, 1-(4-{[7-(2-fluoropyridin-3-yl)-5H-pyrrolo[2,3-b]pyrazin-2-yl]oxy}piperidin-1-yl)prop-2-en-1-one], which IC50 is on record?
A: 0.129 µM

Q: How did the IC50 turn out when `C=CC(=O)N1CCN(c2cnc3[nH]cc(C(=O)NC(C)C)c3n2)[C@@H](CC)C1` [Example 325, 2-[(2S)-4-acryloyl-2-ethylpiperazin-1-yl]-N-(propan-2-yl)-5H-pyrrolo[2,3-b]pyrazine-7-carboxamide] was run?
A: 1.56 µM

Q: Which IC50 does the source give for `C=CC(=O)N1CCC(Nc2cnc3[nH]cc(-c4cncc(C#N)c4)c3n2)CC1` [Example 206, 5-{2-[(1-acryloylpiperidin-4-yl)amino]-5H-pyrrolo[2,3-b]pyrazin-7-yl}pyridine-3-carbonitrile] here?
A: 0.163 µM

Q: Which IC50 does the source give for `C=CC(=O)N1CCN(c2cnc3[nH]cc(C(=O)NC(C)C)c3n2)[C@H](CC)C1` [Example 321, 2-[(2R)-4-acryloyl-2-ethylpiperazin-1-yl]-N-(propan-2-yl)-5H-pyrrolo[2,3-b]pyrazine-7-carboxamide] here?
A: 0.415 µM

Q: For `C=CC(=O)N1CCN(c2cnc3[nH]cc(C(=O)NC(C)C)c3n2)C[C@H]1C(C)C` [Example 294, 2-[(3R)-4-acryloyl-3-(propan-2-yl)piperazin-1-yl]-N-(propan-2-yl)-5H-pyrrolo[2,3-b]pyrazine-7-carboxamide], which IC50 is on record?
A: 1 µM

Q: Which IC50 does the source give for `C=CC(=O)N1CCC(Oc2cnc3[nH]cc(-c4cncnc4)c3n2)CC1` [Example 215, 1-(4-{[7-(pyrimidin-5-yl)-5H-pyrrolo[2,3-b]pyrazin-2-yl]oxy}piperidin-1-yl)prop-2-en-1-one] here?
A: 1.26 µM

Q: How did the IC50 turn out when `C=CC(=O)N1CCC(Nc2cnc3[nH]cc(C(=O)N[C@H]4CCC[C@H](CC#N)C4)c3n2)CC1` [Example 262, 2-[(1-acryloylpiperidin-4-yl)amino]-N-[(1S,3S)-3-(cyanomethyl)cyclohexyl]-5H-pyrrolo[2,3-b]pyrazine-7-carboxamide] was run?
A: 1.33 µM

Q: Which IC50 does the source give for `C=CC(=O)N1CCC(Oc2cnc3[nH]cc(-c4cccc(C(=O)NC)c4)c3n2)CC1` [Example 227, 3-{2-[(1-acryloylpiperidin-4-yl)oxy]-5H-pyrrolo[2,3-b]pyrazin-7-yl}-N-methylbenzamide] here?
A: 0.643 µM

Q: `C=CC(=O)N1CCC(Nc2cnc3[nH]cc(C(=O)NCCCCCCCCC#N)c3n2)CC1` [Example 260, 2-[(1-acryloylpiperidin-4-yl)amino]-N-(8-cyanooctyl)-5H-pyrrolo[2,3-b]pyrazine-7-carboxamide] was tested. Which IC50 did it give?
A: 0.575 µM

Q: Which IC50 does the source give for `C=CC(=O)N1CCC(Nc2cnc3[nH]cc(C(=O)N4CCCC4)c3n2)CC1` [Example 287, 1-(4-{[7-(pyrrolidin-1-ylcarbonyl)-5H-pyrrolo[2,3-b]pyrazin-2-yl]amino}piperidin-1-yl)prop-2-en-1-one] here?
A: 7.37 µM

Q: How did the IC50 turn out when `C=CC(=O)N1CCC(Nc2cnc3[nH]cc(C(=O)N[C@H](C(C)C)[C@@H](O)C(F)(F)F)c3n2)CC1` [Example 248, 2-[(1-acryloylpiperidin-4-yl)amino]-N-[(2R,3R)-1,1,1-trifluoro-2-hydroxy-4-methylpentan-3-yl]-5H-pyrrolo[2,3-b]pyrazine-7-carboxamide] was run?
A: 0.893 µM

Q: How did the IC50 turn out when `C=CC(=O)N1[C@H](C)CN(c2cnc3[nH]cc(C(=O)NC(C)C)c3n2)C[C@@H]1C` [Example 306, 2-[(3R,5S)-4-acryloyl-3,5-dimethylpiperazin-1-yl]-N-(propan-2-yl)-5H-pyrrolo[2,3-b]pyrazine-7-carboxamide] was run?
A: 1.09 µM

Q: For `C=CC(=O)N1CC2CCC1CN2c1cnc2[nH]cc(C(=O)NC(C)C)c2n1` (stereo not shown) [Example 308, 2-(5-acryloyl-2,5-diazabicyclo[2.2.2]oct-2-yl)-N-(propan-2-yl)-5H-pyrrolo[2,3-b]pyrazine-7-carboxamide], which IC50 is on record?
A: 2.24 µM

Q: How did the IC50 turn out when `C=CC(=O)N1CCC(Nc2cnc3[nH]cc(C(=O)NCC4(O)CCCC(F)(F)C4)c3n2)CC1` (stereo not shown) [Example 249, 2-[(1-acryloylpiperidin-4-yl)amino]-N-[(3,3-difluoro-1-hydroxycyclohexyl)methyl]-5H-pyrrolo[2,3-b]pyrazine-7-carboxamide] was run?
A: 2.11 µM

Q: With `C=CC(=O)N1CCC(Nc2cnc3[nH]cc(-c4ccc(S(C)(=O)=O)cc4)c3n2)CC1` [Example 203, 1-[4-({7-[4-(methylsulfonyl)phenyl]-5H-pyrrolo[2,3-b]pyrazin-2-yl}amino)piperidin-1-yl]prop-2-en-1-one] as the compound, how does the IC50 read?
A: 1.18 µM

Q: How did the IC50 turn out when `C=CC(=O)N1CCN(c2cnc3[nH]cc(C(=O)NC(C)C)c3n2)C2(CC2)C1` [Example 313, 2-(7-acryloyl-4,7-diazaspiro[2.5]oct-4-yl)-N-(propan-2-yl)-5H-pyrrolo[2,3-b]pyrazine-7-carboxamide] was run?
A: 0.706 µM

Q: `C=CC(=O)N1C[C@H](C)C[C@@H](Nc2ncnc3[nH]ccc23)C1` (racemic) [Example 65, Rac-1-((3R,5R)-3-((7H-Pyrrolo[2,3-d]pyrimidin-4-yl)amino)-5-methylpiperidin-1-yl)prop-2-en-1-one] was tested. Which IC50 did it give?
A: 3.74 µM

Q: For `C=CC(=O)N1CCC(Nc2cnc3[nH]cc(C(=O)NCC4(O)CCCC4)c3n2)CC1` [Example 232, 2-[(1-acryloylpiperidin-4-yl)amino]-N-[(1-hydroxycyclopentyl)methyl]-5H-pyrrolo[2,3-b]pyrazine-7-carboxamide], which IC50 is on record?
A: 1.64 µM

Q: How did the IC50 turn out when `C=CC(=O)N1CCC(Oc2cnc3[nH]cc(-c4cnc(OC)nc4)c3n2)CC1` [Example 219, 1-(4-{[7-(2-methoxypyrimidin-5-yl)-5H-pyrrolo[2,3-b]pyrazin-2-yl]oxy}piperidin-1-yl)prop-2-en-1-one] was run?
A: 0.987 µM
